The source of these data is US11306119B2, “Peptide bound to PD-L1 and use thereof” (KYUNGPOOK NATIONAL UNIVERSITY INDUSTRY-ACADEMIC COOPERATION …, priority 2017, dated 2022).

One assay relates to CT26 syngeneic tumor. Put plainly: Antitumor therapy in CT26 syngeneic mouse model (peptide alone). Type of assay: in vivo. Conditions: i.v. every alternative day, 24 days, FIG. 5b. On the procedure:
(§1) 6-8-week-old WT Balb/c mice were purchased. Mice was cared and maintained under the guidelines of the Institutional Animal Care and Use Committee (IACUC) of Kyungpook National University (2014-0001-8.). Tumor was injected onto the lower right flank of the mice. For the in-vivo homing imaging, the tumor was developed for 7 days, after the tumor size reached to 100 mm^3, the mice were injected with 100 μl of […] Flamma-675 NIR fluorescence dye labelled peptides and allow the complete circulation for an hour. After incubation, the mice were anesthetized, and the image was taken using the IVIS imaging system. […] Tumor size was measured using a digital caliper, and the tumor volume was calculated using the formula (Volume ¼ (L−W−H)/2. (Length: longest dimension, Width: shorter dimension, parallel to the mouse body and Height: perpendicular to the length and width). All mice were checked for the ulceration and at the end of the treatment and the mice were sacrificed for the immune cell analysis.
(§2) Tumors were isolated, minced and incubated with a digestion buffer containing collagenase D (5 mg/ml) with the RPMI-1640 medium at 37° C. for 40 min. […] The single cell suspension was made ready to use and CD45 antibody was used to stain the tumor infiltrating leukocytes and then analyzed with following antibodies for CD4, CD8 and F4/80. […]

Assay [1] deals with CT26 mouse syngeneic colon tumor. Briefly: Combination therapy of peptides with doxorubicin in CT26 syngeneic colon tumor model. The format is in vivo. The note with it: flow cytometry, FIG. 6e. On the procedure:
as §1, §2
(In general: A flow cytometer gives signals particle by particle.)

In the next assay the test system is PD-L1 on MDA MB231 cells. Put plainly: Peptide and receptor internalization assay in MDA MB231 cells. The format is cell-based, human. Conditions: MDA MB231, FIG. 2d. On the procedure: MDA MB231, CT26, MCF7, Hek29 cells (1×10^5) were seeded in eight well chamber slides for overnight. Next day, the cells were washed twice with PBS and incubated with 1% BSA at RT for 1 hr to reduce the non-specific binding of peptides. The cells were then incubated with different concentration ([…]) of FITC conjugated peptide for 1 hr at 4° C. After fixation, cells were washed, and counter stained with DAPI, mounted and subjected to confocal microscopy (Zeiss, Oberkochen, Germany). For the peptide internalization assay, the MDA MB231 cells were incubated with […] concentration of FITC-conjugated peptides at 37° C. for 1 hr 30 min, the procedure was then continued as previously described. For the receptor internalization assay, first the internalization of peptide was obtained as described above and then after several washing steps with PBS, the PD-L1 antibody (1:100 dilution) was incubated with the cell for 1 hr 30 min at 37° C. […] For flow cytometry, cells (1×10^6) were harvested and then suspended in the culture medium containing 1% BSA at RT for 1 hr for blocking and then incubated with FITC-labelled PD-L1 for another 1 hr at 4° C. After several washing, 300 ul of cell suspension with PBS was subjected to flow cytometry (BD, Franklin Lakes, N.J.). […]

Consider CLQKTPKQC [PD-L1Pep-1], for which, in the assay on CT26 syngeneic tumor, the “tumor volume control compared to control peptide and PBS group” value was “robust effect”. Moreover, the “percentage of CD4+ T cells in tumor tissue, increased value ("to")” value in assay [1] was determined as 6%. In the case of “NSSSVDK (phage coat protein used as control peptide)”, the “surface PD-L1 antibody staining after peptide internalization (receptor internalization)” value in the assay on PD-L1 on MDA MB231 cells is reported as “did not decrease”.
